Values belong to the molecule of their own block, whether it stands above or below them.
Tests used:
Test in all cases: radiometric filter-binding kinase assay
MELK (human) = MELK (human) (UniProt Q14680)
FLT1 (human) = FLT1 (human) (UniProt P17948)
ROCK2 (rat) = conditions: accession and sequence are those of the human protein
DAPK1 (human) = DAPK1 (human) (UniProt P53355)
EPHA2 (human) = EPHA2 (human) (UniProt P29317)
TAOK1 (human) = TAOK1 (human) (UniProt Q7L7X3)
EPHB4 (human) = EPHB4 (human) (UniProt P54760)
Chain of EPHB4 (human) (P54760 whole entry, looked up): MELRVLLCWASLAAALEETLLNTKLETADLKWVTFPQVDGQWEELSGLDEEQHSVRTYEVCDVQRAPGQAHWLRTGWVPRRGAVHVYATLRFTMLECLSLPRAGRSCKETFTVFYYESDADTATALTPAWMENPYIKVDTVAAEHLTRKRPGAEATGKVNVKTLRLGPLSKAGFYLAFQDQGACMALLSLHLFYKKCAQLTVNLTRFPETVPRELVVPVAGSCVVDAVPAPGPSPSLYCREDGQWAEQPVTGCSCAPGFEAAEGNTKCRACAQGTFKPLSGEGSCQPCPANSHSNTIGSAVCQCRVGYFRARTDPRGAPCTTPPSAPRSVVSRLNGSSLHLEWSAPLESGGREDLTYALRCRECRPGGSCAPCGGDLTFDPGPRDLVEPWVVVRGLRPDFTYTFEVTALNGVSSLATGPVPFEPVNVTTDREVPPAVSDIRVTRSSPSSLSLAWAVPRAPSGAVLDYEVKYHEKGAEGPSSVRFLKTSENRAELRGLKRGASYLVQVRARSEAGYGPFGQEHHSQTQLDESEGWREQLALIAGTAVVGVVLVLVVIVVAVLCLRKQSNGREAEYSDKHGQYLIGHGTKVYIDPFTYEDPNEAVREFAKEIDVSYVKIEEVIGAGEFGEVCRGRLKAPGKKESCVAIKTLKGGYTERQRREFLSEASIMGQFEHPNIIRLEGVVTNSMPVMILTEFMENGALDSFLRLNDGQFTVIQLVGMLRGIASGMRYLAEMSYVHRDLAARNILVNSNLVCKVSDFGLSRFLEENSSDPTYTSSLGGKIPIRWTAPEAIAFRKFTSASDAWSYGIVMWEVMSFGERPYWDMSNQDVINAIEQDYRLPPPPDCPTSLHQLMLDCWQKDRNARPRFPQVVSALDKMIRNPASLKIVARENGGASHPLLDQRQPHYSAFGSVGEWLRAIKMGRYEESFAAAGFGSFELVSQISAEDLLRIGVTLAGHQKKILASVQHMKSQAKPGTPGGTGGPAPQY

MAPK12 (human) = MAPK12 (human) (UniProt P53778)
MARK2 (human) = MARK2 (human) (UniProt Q7KZI7)
MAP3K7 TAB1 (human) = MAP3K7 TAB1 (human) (UniProt Q15750+O43318)
Chain of MAP3K7 TAB1 (human) (O43318 whole entry, looked up): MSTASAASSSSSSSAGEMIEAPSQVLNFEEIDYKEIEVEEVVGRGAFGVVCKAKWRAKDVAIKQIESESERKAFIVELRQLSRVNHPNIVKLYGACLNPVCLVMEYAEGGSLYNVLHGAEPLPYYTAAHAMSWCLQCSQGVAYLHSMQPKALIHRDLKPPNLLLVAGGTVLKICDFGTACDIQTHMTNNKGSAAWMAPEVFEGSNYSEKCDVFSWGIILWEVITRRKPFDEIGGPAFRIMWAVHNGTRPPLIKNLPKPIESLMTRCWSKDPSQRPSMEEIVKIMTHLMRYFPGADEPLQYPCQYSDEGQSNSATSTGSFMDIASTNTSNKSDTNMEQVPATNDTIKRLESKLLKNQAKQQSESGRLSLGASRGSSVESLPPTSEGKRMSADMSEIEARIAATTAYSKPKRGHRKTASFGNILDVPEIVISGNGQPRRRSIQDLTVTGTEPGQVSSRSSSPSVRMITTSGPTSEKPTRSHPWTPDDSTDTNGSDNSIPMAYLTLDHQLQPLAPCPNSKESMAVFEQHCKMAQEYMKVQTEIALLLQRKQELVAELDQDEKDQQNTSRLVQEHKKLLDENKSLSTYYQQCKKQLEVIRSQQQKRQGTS
Chain of MAP3K7 TAB1 (human) (Q15750 whole entry, looked up): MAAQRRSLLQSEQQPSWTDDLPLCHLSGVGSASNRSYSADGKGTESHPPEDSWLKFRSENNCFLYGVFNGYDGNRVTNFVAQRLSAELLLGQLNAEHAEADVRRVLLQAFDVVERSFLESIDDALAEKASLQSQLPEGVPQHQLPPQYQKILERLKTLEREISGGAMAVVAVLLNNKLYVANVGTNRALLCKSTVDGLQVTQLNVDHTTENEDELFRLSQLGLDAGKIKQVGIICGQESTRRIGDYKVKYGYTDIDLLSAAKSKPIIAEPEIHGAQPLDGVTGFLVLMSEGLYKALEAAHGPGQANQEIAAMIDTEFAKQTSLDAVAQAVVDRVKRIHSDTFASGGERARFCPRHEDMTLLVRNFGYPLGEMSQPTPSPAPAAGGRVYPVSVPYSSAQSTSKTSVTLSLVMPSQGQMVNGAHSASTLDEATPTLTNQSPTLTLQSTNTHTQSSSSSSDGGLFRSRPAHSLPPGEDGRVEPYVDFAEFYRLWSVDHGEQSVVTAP

PIM3 (human) = PIM3 (human) (UniProt Q86V86)
IKBKE (human) = IKBKE (human) (UniProt Q14164)
MYLK (human) = MYLK (human) (UniProt Q15746)
HIPK2 (human) = HIPK2 (human) (UniProt Q9H2X6)
STK3 (human) = STK3 (human) (UniProt Q13188)
Chain of STK3 (human) (Q13188 whole entry, looked up): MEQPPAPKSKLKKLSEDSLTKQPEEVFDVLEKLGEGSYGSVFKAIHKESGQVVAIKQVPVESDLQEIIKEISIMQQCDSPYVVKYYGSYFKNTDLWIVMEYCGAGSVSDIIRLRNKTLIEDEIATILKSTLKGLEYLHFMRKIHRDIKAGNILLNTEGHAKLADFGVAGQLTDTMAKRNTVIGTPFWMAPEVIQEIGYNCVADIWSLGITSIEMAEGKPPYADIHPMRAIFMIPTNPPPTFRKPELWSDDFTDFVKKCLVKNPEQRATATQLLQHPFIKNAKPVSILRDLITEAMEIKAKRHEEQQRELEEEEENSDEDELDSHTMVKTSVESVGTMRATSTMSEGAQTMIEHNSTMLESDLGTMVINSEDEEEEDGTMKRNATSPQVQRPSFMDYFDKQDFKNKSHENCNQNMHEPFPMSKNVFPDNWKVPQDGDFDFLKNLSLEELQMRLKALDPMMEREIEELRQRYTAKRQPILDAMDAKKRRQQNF

NEK2 (human) = NEK2 (human) (UniProt P51955)
Chain of NEK2 (human) (P51955 whole entry, looked up): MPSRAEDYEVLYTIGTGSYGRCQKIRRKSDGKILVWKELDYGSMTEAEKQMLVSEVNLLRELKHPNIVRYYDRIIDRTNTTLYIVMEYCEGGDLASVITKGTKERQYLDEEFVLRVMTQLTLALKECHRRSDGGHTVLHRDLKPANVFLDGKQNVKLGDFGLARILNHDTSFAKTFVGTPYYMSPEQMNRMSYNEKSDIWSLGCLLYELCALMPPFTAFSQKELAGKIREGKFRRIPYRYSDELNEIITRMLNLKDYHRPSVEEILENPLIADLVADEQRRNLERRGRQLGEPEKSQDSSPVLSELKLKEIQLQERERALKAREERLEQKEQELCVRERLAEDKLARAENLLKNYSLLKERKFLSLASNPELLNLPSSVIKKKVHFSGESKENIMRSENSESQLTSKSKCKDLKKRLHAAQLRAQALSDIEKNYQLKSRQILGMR

IRAK4 (human) = IRAK4 (human) (UniProt Q9NWZ3)
EPHB1 (human) = EPHB1 (human) (UniProt P54762)
CHEK2 (human) = CHEK2 (human) (UniProt O96017)
Chain of CHEK2 (human) (O96017 whole entry, looked up): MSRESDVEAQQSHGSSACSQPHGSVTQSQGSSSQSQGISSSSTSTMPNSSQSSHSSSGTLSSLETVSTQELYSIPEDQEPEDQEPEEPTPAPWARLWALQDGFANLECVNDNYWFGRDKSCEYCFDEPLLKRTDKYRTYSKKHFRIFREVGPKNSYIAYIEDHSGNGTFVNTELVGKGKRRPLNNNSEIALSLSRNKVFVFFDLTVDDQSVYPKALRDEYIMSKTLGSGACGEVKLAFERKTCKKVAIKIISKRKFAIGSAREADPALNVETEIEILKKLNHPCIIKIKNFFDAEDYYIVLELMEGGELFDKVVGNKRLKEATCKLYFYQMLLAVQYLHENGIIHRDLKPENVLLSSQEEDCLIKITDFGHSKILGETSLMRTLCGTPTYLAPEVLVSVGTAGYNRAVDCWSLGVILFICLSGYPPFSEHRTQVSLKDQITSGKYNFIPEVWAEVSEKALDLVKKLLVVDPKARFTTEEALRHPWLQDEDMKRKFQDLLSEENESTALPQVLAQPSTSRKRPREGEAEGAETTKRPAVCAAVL

EPHB2 (human) = EPHB2 (human) (UniProt P29323)
MAPKAPK5 (human) = MAPKAPK5 (human) (UniProt Q8IW41)
DYRK3 (human) = DYRK3 (human) (UniProt O43781)
MAPKAPK2 (human) = MAPKAPK2 (human) (UniProt P49137)
GCK (human) = GCK (human) (UniProt Q12851)
DYRK2 (human) = DYRK2 (human) (UniProt Q92630)
PRKCA (human) = PRKCA (human) (UniProt P17252)
CLK2 (human) = CLK2 (human) (UniProt P49760)
[1] = test system: RPS6KB1 (human), P23443 [T412E]
PKN2 (human) = PKN2 (human) (UniProt Q16513)
Chain of PKN2 (human) (Q16513 whole entry, looked up): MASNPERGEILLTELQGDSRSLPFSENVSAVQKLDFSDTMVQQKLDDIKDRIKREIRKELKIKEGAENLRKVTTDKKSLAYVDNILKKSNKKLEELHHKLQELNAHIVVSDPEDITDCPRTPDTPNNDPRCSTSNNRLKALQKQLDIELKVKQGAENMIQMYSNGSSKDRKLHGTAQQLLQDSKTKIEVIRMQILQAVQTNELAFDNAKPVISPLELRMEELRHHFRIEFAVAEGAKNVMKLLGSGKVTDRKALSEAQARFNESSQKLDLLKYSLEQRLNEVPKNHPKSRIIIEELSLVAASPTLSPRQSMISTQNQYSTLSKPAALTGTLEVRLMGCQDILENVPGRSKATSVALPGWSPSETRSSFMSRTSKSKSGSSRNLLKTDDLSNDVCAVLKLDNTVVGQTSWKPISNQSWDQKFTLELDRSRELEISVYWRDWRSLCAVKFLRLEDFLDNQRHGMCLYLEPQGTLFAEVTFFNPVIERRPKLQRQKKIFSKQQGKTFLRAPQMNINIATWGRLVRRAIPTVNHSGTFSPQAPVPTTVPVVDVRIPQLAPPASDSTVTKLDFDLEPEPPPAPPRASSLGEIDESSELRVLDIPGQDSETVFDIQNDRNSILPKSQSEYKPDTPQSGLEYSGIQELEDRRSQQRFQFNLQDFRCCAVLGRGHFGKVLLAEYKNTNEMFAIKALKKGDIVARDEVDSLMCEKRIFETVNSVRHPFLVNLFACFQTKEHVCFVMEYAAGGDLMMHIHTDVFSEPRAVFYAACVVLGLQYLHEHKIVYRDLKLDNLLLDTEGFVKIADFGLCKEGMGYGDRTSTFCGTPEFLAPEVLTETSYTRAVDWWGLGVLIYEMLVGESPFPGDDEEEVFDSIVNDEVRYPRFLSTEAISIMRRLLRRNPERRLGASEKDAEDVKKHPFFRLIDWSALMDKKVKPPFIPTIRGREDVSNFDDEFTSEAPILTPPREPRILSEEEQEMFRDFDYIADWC

MARK1 (human) = MARK1 (human) (UniProt Q9P0L2)
MAPK14 (human) = MAPK14 (human) (UniProt Q16539)
PIM1 (human) = PIM1 (human) (UniProt P11309)
Chain of PIM1 (human) (P11309 whole entry, looked up): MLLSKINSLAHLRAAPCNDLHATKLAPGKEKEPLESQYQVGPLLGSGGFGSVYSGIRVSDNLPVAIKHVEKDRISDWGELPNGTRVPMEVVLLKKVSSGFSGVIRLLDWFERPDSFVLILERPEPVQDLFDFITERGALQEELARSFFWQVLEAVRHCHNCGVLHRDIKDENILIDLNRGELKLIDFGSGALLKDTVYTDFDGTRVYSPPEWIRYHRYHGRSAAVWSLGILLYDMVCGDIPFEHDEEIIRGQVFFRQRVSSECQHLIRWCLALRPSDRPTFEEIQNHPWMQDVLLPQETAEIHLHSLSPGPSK

TTK (human) = TTK (human) (UniProt P33981)
RPS6KA1 KD1 KD2 (human) = RPS6KA1 KD1 KD2 (human) (UniProt Q15418)
[2] = test system: SGK1 (human), O00141 [S422D]

residual activity (MELK (human); compound 0.1 µM): 91%
residual activity (MELK (human); compound 1.0 µM): 63%
residual activity (FLT1 (human); compound 0.1 µM): 100%
residual activity (FLT1 (human); compound 1.0 µM): 53%
residual activity (ROCK2 (rat); compound 0.1 µM): 86%
residual activity (ROCK2 (rat); compound 1.0 µM): 80%
residual activity (DAPK1 (human); compound 0.1 µM): 102%
residual activity (DAPK1 (human); compound 1.0 µM): 90%
residual activity (EPHA2 (human); compound 0.1 µM): 118%
residual activity (EPHA2 (human); compound 1.0 µM): 111%
residual activity (TAOK1 (human); compound 0.1 µM): 124%
residual activity (TAOK1 (human); compound 1.0 µM): 97%
residual activity (EPHB4 (human); compound 0.1 µM): 97%
residual activity (EPHB4 (human); compound 1.0 µM): 98%
residual activity (MAPK12 (human); compound 0.1 µM): 99%
residual activity (MAPK12 (human); compound 1.0 µM): 95%
residual activity (MARK2 (human); compound 0.1 µM): 99%
residual activity (MARK2 (human); compound 1.0 µM): 85%
residual activity (MAP3K7 TAB1 (human); compound 0.1 µM): 90%
residual activity (MAP3K7 TAB1 (human); compound 1.0 µM): 66%
residual activity (PIM3 (human); compound 1.0 µM): 83%
residual activity (IKBKE (human); compound 0.1 µM): 92%
residual activity (IKBKE (human); compound 1.0 µM): 94%
residual activity (MYLK (human); compound 0.1 µM): 97%
residual activity (MYLK (human); compound 1.0 µM): 96%
residual activity (HIPK2 (human); compound 0.1 µM): 92%
residual activity (HIPK2 (human); compound 1.0 µM): 99%
residual activity (STK3 (human); compound 1.0 µM): 72%
residual activity (NEK2 (human); compound 0.1 µM): 105%
residual activity (NEK2 (human); compound 1.0 µM): 100%
residual activity (IRAK4 (human); compound 1.0 µM): 86%
residual activity (EPHB1 (human); compound 0.1 µM): 97%
residual activity (EPHB1 (human); compound 1.0 µM): 95%
residual activity (CHEK2 (human); compound 0.1 µM): 102%
residual activity (CHEK2 (human); compound 1.0 µM): 72%
residual activity (EPHB2 (human); compound 0.1 µM): 101%
residual activity (EPHB2 (human); compound 1.0 µM): 97%
residual activity (MAPKAPK5 (human); compound 0.1 µM): 92%
residual activity (MAPKAPK5 (human); compound 1.0 µM): 82%
residual activity (DYRK3 (human); compound 0.1 µM): 94%
residual activity (DYRK3 (human); compound 1.0 µM): 80%
residual activity (MAPKAPK2 (human); compound 0.1 µM): 102%
residual activity (MAPKAPK2 (human); compound 1.0 µM): 100%
residual activity (GCK (human); compound 0.1 µM): 98%
residual activity (GCK (human); compound 1.0 µM): 73%
residual activity (DYRK2 (human); compound 0.1 µM): 73%
residual activity (DYRK2 (human); compound 1.0 µM): 72%
residual activity (PRKCA (human); compound 0.1 µM): 93%
residual activity (PRKCA (human); compound 1.0 µM): 90%
residual activity (CLK2 (human); compound 0.1 µM): 102%
residual activity (CLK2 (human); compound 1.0 µM): 88%
residual activity ([1]; compound 0.1 µM): 98%
residual activity ([1]; compound 1.0 µM): 93%
residual activity (PKN2 (human); compound 0.1 µM): 112%
residual activity (PKN2 (human); compound 1.0 µM): 95%
residual activity (MARK1 (human); compound 0.1 µM): 114%
residual activity (MAPK14 (human); compound 0.1 µM): 105%
residual activity (MAPK14 (human); compound 1.0 µM): 110%
residual activity (PIM1 (human); compound 0.1 µM): 104%
residual activity (PIM1 (human); compound 1.0 µM): 89%
residual activity (TTK (human); compound 0.1 µM): 85%
residual activity (TTK (human); compound 1.0 µM): 65%
residual activity (RPS6KA1 KD1 KD2 (human); compound 0.1 µM): 89%
residual activity (RPS6KA1 KD1 KD2 (human); compound 1.0 µM): 81%
Compound: Cc1cc(NC(=O)c2cccc(NC(=O)/C=C/CN(C)C)c2)ccc1Nc1nccc(-c2cccnc2)n1

residual activity (MELK (human); compound 1.0 µM): 87%
residual activity (MELK (human); compound 10.0 µM): 91%
residual activity (FLT1 (human); compound 1.0 µM): 89%
residual activity (FLT1 (human); compound 10.0 µM): 104%
residual activity (ROCK2 (rat); compound 10.0 µM): 81%
residual activity (DAPK1 (human); compound 1.0 µM): 110%
residual activity (DAPK1 (human); compound 10.0 µM): 113%
residual activity (EPHA2 (human); compound 10.0 µM): 105%
residual activity (TAOK1 (human); compound 1.0 µM): 104%
residual activity (TAOK1 (human); compound 10.0 µM): 100%
residual activity (EPHB4 (human); compound 1.0 µM): 106%
residual activity (EPHB4 (human); compound 10.0 µM): 108%
residual activity (MAPK12 (human); compound 1.0 µM): 101%
residual activity (MAPK12 (human); compound 10.0 µM): 95%
residual activity ([2]; compound 1.0 µM): 95%
residual activity ([2]; compound 10.0 µM): 112%
residual activity (MARK2 (human); compound 1.0 µM): 90%
residual activity (MARK2 (human); compound 10.0 µM): 88%
residual activity (MAP3K7 TAB1 (human); compound 1.0 µM): 107%
residual activity (MAP3K7 TAB1 (human); compound 10.0 µM): 105%
residual activity (PIM3 (human); compound 10.0 µM): 78%
residual activity (IKBKE (human); compound 1.0 µM): 73%
residual activity (IKBKE (human); compound 10.0 µM): 78%
residual activity (HIPK2 (human); compound 1.0 µM): 88%
residual activity (HIPK2 (human); compound 10.0 µM): 97%
residual activity (STK3 (human); compound 1.0 µM): 87%
residual activity (STK3 (human); compound 10.0 µM): 84%
residual activity (NEK2 (human); compound 1.0 µM): 109%
residual activity (NEK2 (human); compound 10.0 µM): 100%
residual activity (IRAK4 (human); compound 10.0 µM): 99%
residual activity (EPHB1 (human); compound 10.0 µM): 100%
residual activity (CHEK2 (human); compound 10.0 µM): 67%
residual activity (EPHB2 (human); compound 1.0 µM): 107%
residual activity (EPHB2 (human); compound 10.0 µM): 109%
residual activity (DYRK3 (human); compound 10.0 µM): 84%
residual activity (MAPKAPK2 (human); compound 1.0 µM): 88%
residual activity (MAPKAPK2 (human); compound 10.0 µM): 93%
residual activity (GCK (human); compound 1.0 µM): 91%
residual activity (GCK (human); compound 10.0 µM): 88%
residual activity (DYRK2 (human); compound 1.0 µM): 93%
residual activity (DYRK2 (human); compound 10.0 µM): 92%
residual activity (PRKCA (human); compound 10.0 µM): 88%
residual activity (CLK2 (human); compound 1.0 µM): 127%
residual activity ([1]; compound 1.0 µM): 94%
residual activity ([1]; compound 10.0 µM): 85%
residual activity (PKN2 (human); compound 1.0 µM): 90%
residual activity (PKN2 (human); compound 10.0 µM): 92%
residual activity (MARK1 (human); compound 1.0 µM): 100%
residual activity (MARK1 (human); compound 10.0 µM): 107%
residual activity (MAPK14 (human); compound 10.0 µM): 102%
residual activity (PIM1 (human); compound 10.0 µM): 103%
residual activity (TTK (human); compound 1.0 µM): 86%
residual activity (TTK (human); compound 10.0 µM): 98%
residual activity (RPS6KA1 KD1 KD2 (human); compound 1.0 µM): 96%
residual activity (RPS6KA1 KD1 KD2 (human); compound 10.0 µM): 95%
Compound: NS(=O)(=O)OC[C@@H]1C[C@@H](n2ccc3c(N[C@H]4CCc5ccccc54)ncnc32)C[C@@H]1O
